Patent publication US20250019385A1, “SPIROCYCLIC ANNULATED 2-AMINO-3-CYANO THIOPHENES AND DERIVATIVES FOR THE TREATMENT OF CANCER” (Boehringer Ingelheim International GmbH, priority 2023, published 2025)
Like-named read-outs stand apart in the source and are kept apart here.

Tests used:
[1] = molecular target: KRAS (G12D)::CRAF protein::protein interaction (Homo sapiens (Human), UniProt P01116, G12D); assay: KRAS TR-FRET assay (KRAS G12D::CRAF, GTP); format: binding
Protocol: (§1) This assay measures the inhibitory effect of compounds on KRAS::CRAF protein::protein interactions in the presence of GTP using Time-resolved fluorescence energy transfer (TR-FRET).
(§2) The following wildtype or mutant alleles of KRAS and CRAF protein have been used at the given concentrations:
KRAS (G12D) 1-169, N-terminal 6His-tag, C-terminal avi-tag (Xtal BioStructures, Inc.); final assay concentration 15 nM,
(§3) CRAF Ras binding domain, GST-tag, TEV cleavage site (Boehringer Ingelheim in house protein prep); final assay concentration 15 nM.
(§4) Test compounds dissolved in DMSO were dispensed onto assay plates (Proxiplate 384 PLUS, white, PerkinElmer; 6008289) using an Access Labcyte Workstation with the Labcyte Echo 55x. For the chosen highest assay concentration of 100 μM, 150 nl of compound solution was transferred from a 10 mM DMSO compound stock solution. A series of eleven fivefold dilutions per compound was transferred to the assay plate, compound dilutions were tested in duplicates. DMSO was added as backfill to a total volume of 150 nl.
(§5) The assay runs on a fully automated robotic system. To 150 nl of compound dilution 15 μl of a mix including the respective KRAS allele, CRAF (e.g. KRAS (G12D)::CRAF; final assay concentrations see above), GTP nucleotide (Sigma G8877; final assay concentration 10 μM), Lance Eu—W1024 labeled Streptavidin (PerkinElmer, Cat No AD0063; final assay concentration 1.5 nM) and Anti-GST surelight APC (PerkinElmer, Cat No AD0059G; final assay concentration 30 nM) in assay buffer (1×PBS, 0.1% BSA, 0.05% Tween 20) are added into columns 1-23 and 15 μL of the solution without the respective KRAS allele were added to row 24.
(§6) Plates are kept at room temperature in a darkened incubator. After 60 minutes incubation time the signal is measured in a PerkinElmer Envision HTS Multilabel Reader using the TR-FRET LANCE Ultra specs from PerkinElmer.
(§7) Each plate contains 16 wells of a negative control (diluted DMSO instead of test compound; w respective KRAS allele; column 23) and 16 wells of a positive control (diluted DMSO instead of test compound; w/o respective KRAS allele; column 24).
(§8) IC50 values were calculated and analyzed with Boehringer Ingelheim's MEGALAB 50 application using a 4 parametric logistic model.
(§9) Tables of example compounds disclosed herein contain IC50 values determined using the above assays (see Table 44).

Ba/F3 cells KRAS G12D = assay: Ba/F3 proliferation assay (KRAS G12D); format: cell-based; settings: AlamarBlue viability
Procedure, shortened: (§10)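 Ba/F3 cells retrovirally transduced with KRAS G12 mutant, puromycin-selected, grown IL-3-independent; seeded in RPMI-1640 + 10% FCS without IL-3. Logarithmic compound dose series in duplicate, 72 h at 37° C., AlamarBlue fluorescence as % of DMSO control; IC50 from four-parameter non-linear regression.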

Ba/F3 cells KRAS G12C = assay: Ba/F3 proliferation assay (KRAS G12C); format: cell-based; settings: AlamarBlue viability
Procedure, shortened: as §10

[2] = molecular target: KRAS (G12V)::CRAF protein::protein interaction (Homo sapiens (Human), UniProt P01116, C118S/G12V); assay: KRAS TR-FRET assay (KRAS G12V::CRAF, GTP); format: binding
Chain of KRAS (G12V)::CRAF protein::protein interaction (P01116 other isoform, or with tags, fused parts or gaps G12V/C118S): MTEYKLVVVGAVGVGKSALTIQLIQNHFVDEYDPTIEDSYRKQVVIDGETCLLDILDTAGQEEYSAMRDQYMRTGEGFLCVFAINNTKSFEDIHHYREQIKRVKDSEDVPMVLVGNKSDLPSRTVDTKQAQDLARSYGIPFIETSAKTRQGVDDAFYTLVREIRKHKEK
Protocol: as §1, §2
KRAS (G12V) 1-169, C118S, N-terminal 6His-tag, C-terminal avi-tag (Boehringer Ingelheim in house protein prep); final assay concentration 15 nM.
as §3, §4, §5, §6, §7, §8, §9

AsPC-1 cells = assay: AsPC-1 CTG proliferation assay (120 h) (pancreatic cancer, G12D); format: cell-based
Procedure, shortened: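 AsPC-1 cells plated overnight, then exposed to logarithmic compound dose series (duplicates) for 120 h at 37° C. Viability by CellTiter-Glo luminescence as percent of DMSO controls, with a T0 reading at compound addition; IC50 from four-parameter non-linear regression.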

[3] = molecular target: KRAS (WT)::CRAF protein::protein interaction (Homo sapiens (Human), UniProt P01116); assay: KRAS TR-FRET assay (KRAS WT::CRAF, GTP); format: binding
Chain of KRAS (WT)::CRAF protein::protein interaction (P01116 other isoform, or with tags, fused parts or gaps): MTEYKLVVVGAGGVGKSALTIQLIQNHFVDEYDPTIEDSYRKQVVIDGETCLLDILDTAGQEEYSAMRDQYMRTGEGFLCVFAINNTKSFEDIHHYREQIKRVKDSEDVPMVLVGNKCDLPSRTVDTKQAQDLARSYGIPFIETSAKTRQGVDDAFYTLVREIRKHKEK
Protocol: as §1, §2
KRAS (WT) 1-169, N-terminal 6His-tag, C-terminal avi-tag (Boehringer Ingelheim in house protein prep); final assay concentration 15 nM.
as §3, §4, §5, §6, §7, §8, §9

Chain of KRAS (G12D)::CRAF protein::protein interaction (P01116 other isoform, or with tags, fused parts or gaps G12D): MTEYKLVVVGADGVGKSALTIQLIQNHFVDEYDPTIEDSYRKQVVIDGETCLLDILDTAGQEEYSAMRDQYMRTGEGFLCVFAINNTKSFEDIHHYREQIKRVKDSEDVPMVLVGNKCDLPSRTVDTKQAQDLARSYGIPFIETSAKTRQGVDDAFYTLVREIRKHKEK

SMILES | IC50 [1] [nM] | IC50 (Ba/F3 cells KRAS G12D; Mus musculus, BaF3, 72 h) [nM] | IC50 (Ba/F3 cells KRAS G12C; Mus musculus, BaF3, 72 h) [nM] | IC50 [2] [nM] | IC50 (AsPC-1 cells; Homo sapiens, ASPC1) [nM] | IC50 [3] [nM] | IC50 (Ba/F3 cells KRAS G12D; 72 h) [nM] | IC50 (Ba/F3 cells KRAS G12C; 72 h) [nM] | IC50 (AsPC-1 cells) [nM]
C[C@H](Oc1nc(-c2noc3c2CCC[C@@]32CCCc3sc(N)c(C#N)c32)nc2c1CCCO[C@]21CCOC1)[C@@H]1CCCN1C [II-10] | 128 | 22 | 7 | 38 | 264 | 56 | – | – | –
C[C@H](Oc1nc(-c2noc3c2CCC[C@@]32CCCc3sc(N)c(C#N)c32)nc2c1CNC[C@]21CCOC1)[C@@H]1CCCN1C [II-15] | 18 | 8 | 1 | 17 | 179 | 40 | – | – | –
C[C@H](Oc1nc(-c2noc3c2CCC[C@@]32CCCc3sc(N)c(C#N)c32)nc2c1CC[C@]21CNCCO1)[C@@H]1C[C@@H](F)CN1C [II-20] | 82 | – | – | 129 | – | 815 | 45 | 181 | 215
